Results reported in patent publication US6864247B2, “Therapeutic agents for glomerulosclerosis” (priority 1999, dated 2005).

Tests used:
[1] = tested on: type I collagen (ColI); test: Immunohistological examination of type I collagen expression in the mesangium, anti-Thy 1 nephritis rat; assay type: in vivo; conditions: 0.4 μg/kg intravenously every two days; day 7; immunohistochemistry
Method: (§1) An anti-Thy 1 antibody (OX-7 purchased from CEDARLANE, Ontario, Canada) was administered into the tail vein of 6-week-old male Wistar rats at 1 mg/kg to induce anti-Thy 1 nephritis. Next day after OX-7 administration, 22-oxa-1α,25-dihydroxyvitamin D3 was intravenously administered at 0.4 μg/kg every two days, and on day 7 after administration, serum, urine and renal tissue were collected.
(§2) For comparison, 1α,25-dihydroxyvitamin D3 was administered in the same manner instead of 22-oxa-1α,25-dihydroxyvitamin D3. Rats not treated with the anti-Thy 1 antibody were used as normal controls. Rats treated with the anti-Thy 1 antibody alone without any vitamin D derivative were used as disease controls.
(§3) In the renal tissue, the expression of type I collagen (ColI) and type IV collagen (ColIV) in the mesangium was immunohistologically examined (FIGS. 4-11). Staining was performed on 4 μm sections using an ABC Elite peroxidase staining kit (Vector Lab., Burlingame, Calif., U.S.A.) according to the manufacturer's instructions. The primary antibodies used were a guinea pig anti-rat type I collagen antibody (Boehringer Ingelheim, Co., Ltd., Ingelheim, Germany) and a rabbit anti-rat type IV collagen antibody (Boehringer Ingelheim, Co., Ltd., Ingelheim, Germany).

[2] = tested on: rat model of anti-Thy 1 antibody-induced nephritis; test: Urinary albumin by ELISA in anti-Thy 1 nephritis rat; assay type: in vivo; conditions: 0.4 μg/kg intravenously every two days; day 7; FIG. 13
Method: as §1, §2
In addition, serum calcium (Ca) was determined with an autoanalyzer (AUTOANALYZER, HITACHI 7170, Tokyo, Japan) and urinary albumin (uALB) was determined with an ELISA kit NEPHRAT II (EXOCELL, INC) (FIGS. 12 and 13).

[3] = tested on: rat model of anti-Thy 1 antibody-induced nephritis; test: Renal histology (glomerular cell count, glomerulosclerosis index, glomerular volume) in rat model of anti-Thy 1 antibody-induced nephritis; assay type: in vivo; conditions: 0.4 μg/kg intravenously every two days from the day after OX-7, day 7; for glomerular cell count: FIG. 1; for glomerular volume: FIG. 3; for glomerulosclerosis index: PAM stained samples, FIG. 2
Text: The pharmacological effect of 22-oxa-1α,25-dihydroxyvitamin D3 used as an active ingredient in the present invention can be evaluated on a rat model of a anti-Thy 1 antibody-induced nephritis characterized by showing increased mesangial cell proliferation and mesangial matrix production after administration of an anti-Thy 1 antibody. The pharmacological effect of test compounds can be evaluated by administering an anti-Thy 1 antibody to such a rat model followed by the test compounds, collecting renal tissue at an appropriate time and determining the glomerular cell count or glomerulosclerosis index or determining the expression of collagen by a standard method such as an immunohistochemical technique.
as §1, §2
In the renal tissue, the glomerular cell count, glomerulosclerosis index and glomerular volume were determined (FIGS. 1, 2 and 3). The “glomerular cell count” was determined by counting every cell in every measurable glomerulus on hematoxylin-eosin stained samples. The “glomerulosclerosis index” was evaluated on PAM (periodic acid-methenamine-silver) stained samples according to the method of Raji et al. The “glomerular volume” was determined by using NIH image to calculate the volume of glomeruli read by an image analyzer.

[4] = tested on: human mesangial cells; conditions: literature report; cited from earlier work
[5] = tested on: type IV collagen (ColIV); test: Immunohistological examination of type IV collagen expression in the mesangium, anti-Thy 1 nephritis rat; assay type: in vivo; conditions: 0.4 μg/kg intravenously every two days; day 7; immunohistochemistry
Method: as §1, §2, §3

[6] = described in Japanese Patent No. 2854600; cited from earlier work
[7] = literature report; cited from earlier work

SMILES | expression of ColI in the mesangium [1] | uALB levels (urinary albumin) [2] | glomerular cell count [3] | glomerular volume [3] | glomerulosclerosis index [3] | antiproliferative effect on human mesangial cells [4] | expression of ColIV in the mesangium [5] | urinary protein excretion [6] | differentiation-inducing effect [7] | hypercalcemia [7]
C=C1/C(=C\C=C2/CCC[C@]3(C)[C@@H]([C@H](C)CCCC(C)(C)O)CC[C@@H]23)C[C@@H](O)C[C@@H]1O [1α,25-dihydroxyvitamin D3, reference compound] | clearly inhibited | significantly suppressed | significantly suppressed | no effect | significantly suppressed | antiproliferative effect | clearly inhibited |  |  | 
C=C1/C(=C\C=C2/CCC[C@]3(C)[C@@H]([C@H](C)OCCC(C)(C)O)CC[C@@H]23)C[C@@H](O)C[C@@H]1O [22-oxa-1α,25-dihydroxyvitamin D3, 1α,3β-dihydroxy-20α-(3-hydroxy-3-methylbutyloxy)-9,10-seco-5,7,10 (19)-pregnatriene] | clearly inhibited | significantly suppressed | significantly suppressed | no effect | significantly suppressed |  | clearly inhibited | inhibits | show a differentiation-inducing effect | without causing hypercalcemia
